From US10201531B2, “Indazolyl-oxo-isothiazole compounds” (MOCHIDA PHARMACEUTICAL CO., LTD., priority 2015, dated 2019)

System: Nrf2
Experiment: Evaluation of Nrf2 activation ability (Nrf2d-LacZ / Keap1 HEK293 reporter, Beta-Glo luminescence)
Type: cell-based, human
How it was run: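 HEK293 cells stably expressing a human Nrf2 degron–LacZ fusion plus human Keap1 were exposed to compound for 3 h at 37° C. Reporter β-galactosidase was read by Beta-Glo luminescence after 1 h at RT. Activation is given as % of the signal with 100 nM CDDO-Im.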

[1] = rated A/B/C, Pharmacological Test Example 1
[2] = Pharmacological Test Example 1, rated A/B/C

Row | Structure (SMILES) | EC50 [1] | EC50 [2]
1 | [O-][s+]1nc(O)cc1-n1ncc2cc(-c3ccnc(N4CCOCC4)c3)ccc21 (stereo not drawn) [Example 59] | < 1000 nM | 
2 | [O-][s+]1nc(O)cc1-n1ncc2cccc(Cl)c21 (stereo not drawn) [Example 37] | 1000 to 5000 nM | 
3 | [O-][s+]1nc(O)cc1-n1ncc2c1CN(Cc1cnc3ccccc3c1)C2 (stereo not drawn) [Example 263] | 1000 to 5000 nM | 
4 | COc1ccc(CN2Cc3cnn(-c4cc(O)n[s+]4[O-])c3C2)cn1 (stereo not drawn) [Example 266] | 5000 to 10000 nM | 
5 | [O-][s+]1nc(O)cc1-n1ncc2cc(-c3cccc(C(F)(F)F)n3)ccc21 (stereo not drawn) [Example 130] | < 1000 nM | 
6 | CN1C(=O)C(C)(C)Oc2cc(-c3ccc4c(cnn4-c4cc(O)n[s+]4[O-])c3)cnc21 (stereo not drawn) [Example 187] | < 1000 nM | 
7 | COc1ncccc1-c1ccc2c(cnn2-c2cc(O)n[s+]2[O-])c1 (stereo not drawn) [Example 124] | < 1000 nM | 
8 | [O-][s+]1nc(O)cc1-n1ncc2ccc(-c3ccc(N4CCCC4)nc3)cc21 (stereo not drawn) [Example 106] | 1000 to 5000 nM | 
9 | [O-][s+]1nc(O)cc1-n1cc(-c2cccc3cnccc23)cn1 (stereo not drawn) [Example 343] |  | 1000 to 5000 nM
10 | [O-][s+]1nc(O)cc1-n1cc(-c2ccc(N3CCCC3)nc2)cn1 (stereo not drawn) [Example 322] |  | 1000 to 5000 nM
11 | N#Cc1nn(-c2cc(O)n[s+]2[O-])c2ccc(Cl)cc12 (stereo not drawn) [Example 21] | 1000 to 5000 nM | 
12 | [O-][s+]1nc(O)cc1-n1cc(-c2ccc3cccnc3c2)cn1 (stereo not drawn) [Example 357] |  | < 1000 nM
13 | [O-][s+]1nc(O)cc1-n1ncc2ccc(C3=CCOCC3)cc21 (stereo not drawn) [Example 103] | 1000 to 5000 nM | 
14 | Cc1nn(-c2cc(O)n[s+]2[O-])c(C)c1C1=CCC(F)(F)CC1 (stereo not drawn) [Example 312] | 5000 to 10000 nM | 
15 | CN(C)c1ccc(-c2ccc3c(cnn3-c3cc(O)n[s+]3[O-])c2)cn1 (stereo not drawn) [Example 136] | < 1000 nM | 
